In patent US20260125654A1, “Method for Producing a Three-Dimensional Human Multiple-Myeloma Model” (Etablissement Français du Sang, priority 2022, published 2026):

Test system: plasma cells in MM spheroids
Test: Viability of plasma cells in 3D MM spheroids treated with melphalan, flow cytometry (CD38/CD138/DAPI)
Format: cell-based, human
Settings: for viability at 10 µM: Homo sapiens, 10 μM melphalan
Description: Following a total bone marrow sample at diagnosis in patients with multiple myeloma (MM), MM plasma cells are separated and then counted in a Malassez cell. The cells were then used freshly for cocultures or were frozen in CRYOSTOR. The MM total marrow cells coming from another patient were seeded according to the initial number thereof and the cells were incubated at a temperature of 37° C. and under an atmosphere with 5% carbon dioxide for about 2 weeks. Once confluence was reached, mesenchymal stem/stromal cells (MSCs), endothelial cells and endothelial progenitors were treated with trypsin and counted.
The MSC cells, the endothelial cells and the endothelial progenitors treated with trypsin and the fresh or thawed plasmocytes in a ratio of 1 MSC per 2 plasmocytes were suspended on ULA (Ultra-Low adherence) plates in 50 μL of RPMI medium (10% FCS, 1% PS). The cells were then incubated at a temperature of 37° C. and an atmosphere with 5% carbon dioxide with stirring. 150 μL of RPMI medium were added after incubation for 24 h and the medium was renewed 2 times per week, removing 100 μL of supernatant.
A treatment with […] melphalan was added to the spheroid culture medium 48 h after the formation thereof and the culture was continued for 14 days. The selection method was supplemented by a control situation, without the presence of a drug candidate. Part of the cultures was stopped after 7 (D+7) and 11 (D+11) days to analyze the viability of the plasma cells, whereas the rest of the cultures was stopped after 14 days of culture (D+14). Spheroid cells were mechanically dissociated at 1400 rpm with AccuMax® and then transferred into a tube suitable for flow cytometry and washed with PBS and labeled with the CD38 FITC and CD138 AF700 specific antibodies in MACS buffer. The cells were then incubated at 4° C. for 30 minutes, washed and resuspended in a MACS buffer medium and filtered at 70 μm, and finally labeled with the viability marker DAPI before passing through flow cytometry.

N[C@@H](Cc1ccc(N(CCCl)CCCl)cc1)C(=O)O [melphalan]
viability at 10 µM (D+7): 5%
viability at 10 µM (D+11): < 5%
viability at 10 µM (D+14): < 10%
response to treatment of plasma cells within spheroids (melphalan 10 μM): strong response
